Laboratory results: ChEMBL document CHEMBL1201862, “PubChem BioAssay data set” (2004)
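48-hour exposure; five concentrations; linearly interpolated endpoints. GI50: concentration for 50% inhibition of growth.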 The source made the active and inactive calls. No stated cut-off is given here; in the data, active = GI50 up to about 1.1 µM and inactive = higher. Where a SMILES comes first, the peptide text is derived from it. The star is where a group is joined. OSu = O=C1CCC(=O)N1O*; OBn = c1ccc(CO*)cc1; Bn = c1ccc(C*)cc1

Key:
Assay in all cases: NCI tumour cell line growth inhibition, 48 h
UACC-257 = test system: UACC-257
HL-60 = test system: HL-60
SW-620 = test system: SW-620
SF-268 = test system: SF-268
LOX IMVI = test system: LOX IMVI
RPMI-8226 = test system: RPMI-8226
SK-OV-3 = test system: SK-OV-3
U-251 = test system: U-251
SNB-19 = test system: SNB-19
A549 = test system: A549
IGROV-1 = test system: IGROV-1
SNB-75 = test system: SNB-75
HT-29 = test system: HT-29
Malme-3M = test system: Malme-3M
SK-MEL-5 = test system: SK-MEL-5
CAKI-1 = test system: CAKI-1
OVCAR-5 = test system: OVCAR-5
HOP-62 = test system: HOP-62
HCT-116 = test system: HCT-116
SR = test system: SR

Measured: GI50

Cn1ncc2c(=O)[nH]c(-c3ccccc3)nc21
inactive: UACC-257 > 100 µM | HL-60 > 100 µM | SW-620 > 100 µM | SF-268 > 100 µM | LOX IMVI > 100 µM | RPMI-8226 > 100 µM | SK-OV-3 > 100 µM | U-251 > 100 µM | SNB-19 > 100 µM | A549 > 100 µM | IGROV-1 > 100 µM | SNB-75 > 100 µM | HT-29 > 100 µM | Malme-3M > 100 µM | SK-MEL-5 > 100 µM | CAKI-1 > 100 µM | OVCAR-5 > 100 µM

COc1ccc(C2C(=O)C(Cl)N2Nc2nc(C)cc(O)n2)cc1OC (configuration not stated)
inactive: UACC-257 40.6 µM | HL-60 13.9 µM | SW-620 45.3 µM | SF-268 17.9 µM | LOX IMVI 18.1 µM | RPMI-8226 19.1 µM | U-251 26.2 µM | HOP-62 23.6 µM | SNB-19 40.5 µM | A549 59.7 µM | IGROV-1 10.9 µM | SNB-75 8.13 µM | HT-29 46.1 µM | HCT-116 36.3 µM | SK-MEL-5 29.3 µM | SR 18.8 µM | OVCAR-5 > 100 µM

CC(=N/NC(=S)N1CCCCCC1)/C(C)=N\NC(=S)N1CCCCCC1
inactive: UACC-257 5.2 µM | SW-620 2.37 µM | SF-268 3.45 µM | LOX IMVI > 10 µM | RPMI-8226 5.66 µM | SK-OV-3 3.88 µM | U-251 2.43 µM | HOP-62 4.98 µM | SNB-19 6.18 µM | A549 5.3 µM | IGROV-1 3.84 µM | SNB-75 5.09 µM | HT-29 2.63 µM | Malme-3M 5.5 µM | HCT-116 5.08 µM | SK-MEL-5 4.86 µM | CAKI-1 4.91 µM | OVCAR-5 7.89 µM

O=c1ccn(C2OC(CN(O)CCC3C(O)C(CO)OC3n3ccc(=O)[nH]c3=O)C(O)C2O)c(=O)[nH]1 (configuration not stated)
inactive: SF-268 > 100 µM | LOX IMVI > 100 µM | RPMI-8226 > 100 µM | SK-OV-3 > 100 µM | U-251 > 100 µM | HOP-62 > 100 µM | SNB-19 > 100 µM | A549 > 100 µM | IGROV-1 > 100 µM | SNB-75 > 100 µM | HT-29 > 100 µM | Malme-3M > 100 µM | HCT-116 > 100 µM | CAKI-1 > 100 µM | OVCAR-5 > 100 µM

CCOC(=O)c1c(NC(=S)NCc2ccccc2)sc2c1CCN(C)C2
inactive: UACC-257 > 100 µM | HL-60 17.4 µM | SF-268 64 µM | RPMI-8226 28.5 µM | HOP-62 > 100 µM | SNB-19 > 100 µM | A549 53.6 µM | IGROV-1 33 µM | HT-29 45.5 µM | HCT-116 67.3 µM | SK-MEL-5 45.1 µM | CAKI-1 > 100 µM | OVCAR-5 > 100 µM

O=C1OC(c2ccccc2)=N/C1=C\c1cccnc1
inactive: UACC-257 > 100 µM | HL-60 20.7 µM | SW-620 > 100 µM | SF-268 > 100 µM | RPMI-8226 48.3 µM | SK-OV-3 > 100 µM | U-251 > 100 µM | HOP-62 > 100 µM | SNB-19 > 100 µM | A549 > 100 µM | IGROV-1 > 100 µM | SNB-75 > 100 µM | HT-29 > 100 µM | SK-MEL-5 > 100 µM | SR 33 µM | OVCAR-5 > 100 µM

CC(C)CC(NC(=O)C(N)CCC(=O)OCc1ccccc1)C(=O)NC(COCc1ccccc1)C(=O)NC(Cc1ccccc1)C(=O)ON1C(=O)CCC1=O (configuration not stated) (H-E(OBn)LS(Bn)F-OSu; configuration not given here)
inactive: UACC-257 28.3 µM | SW-620 37.8 µM | SF-268 48.3 µM | LOX IMVI 18.2 µM | RPMI-8226 19.9 µM | SK-OV-3 25.4 µM | U-251 24.4 µM | SNB-19 30.5 µM | A549 33.6 µM | IGROV-1 23.4 µM | SNB-75 35.7 µM | HT-29 38.2 µM | Malme-3M 29.2 µM | HCT-116 16.4 µM | SK-MEL-5 17.4 µM | CAKI-1 28.8 µM | SR 28.6 µM | OVCAR-5 28.8 µM

CC(C)=CCc1c(O)ccc2ccc(=O)oc12 [OSTHENOL]
inactive: UACC-257 33 µM | HL-60 28.2 µM | SW-620 > 100 µM | SF-268 33.7 µM | LOX IMVI 51.5 µM | RPMI-8226 26.7 µM | SK-OV-3 > 100 µM | U-251 21.9 µM | SNB-19 > 51.9 µM | A549 5.83 µM | IGROV-1 > 68.5 µM | SNB-75 54.5 µM | HT-29 > 100 µM | Malme-3M 38.2 µM | HCT-116 57.4 µM | SK-MEL-5 15.3 µM | CAKI-1 > 61.5 µM | OVCAR-5 > 31.6 µM
